Earlier results, collected in patent US20120034273A1, “EXTRUDATE HAVING SPICULAR ACTIVE SUBSTANCES” (Bayer Animal Health GmbH, priority 2008, published 2012).

Details: stated in words, no test described

solubility in water: poorly soluble in water
SMILES: O=C(C1CCCCC1)N1CC(=O)N2CCc3ccccc3C2C1 (stereo not shown) [praziquantel]
